Source: the NIST ThermoML archive (doi:10.1016/j.jct.2016.03.026)

Assay: xn = mol fraction of the nth substance listed
Conditions: 293.15 K, Fluid (supercritical or subcritical phases), Vibrating tube method, x1 = 0.97

O=C=O [carbon dioxide] + CO
Conditions | mass density [kg/m3]
14700 kPa | 904.75
14725 kPa | 904.95
14750 kPa | 905.15
14775 kPa | 905.36
14800 kPa | 905.48
14825 kPa | 905.68
14850 kPa | 905.88
14875 kPa | 906.06
14900 kPa | 906.27
14925 kPa | 906.44
14950 kPa | 906.59
14975 kPa | 906.77
15000 kPa | 906.96
15025 kPa | 907.15
15050 kPa | 907.32
15075 kPa | 907.46
15100 kPa | 907.6
15125 kPa | 907.83
15150 kPa | 907.99
15175 kPa | 908.18
15200 kPa | 908.32
15225 kPa | 908.49
15250 kPa | 908.66
15275 kPa | 908.85
15300 kPa | 909.03
15325 kPa | 909.22
15350 kPa | 909.37
15375 kPa | 909.52
15400 kPa | 909.68
15425 kPa | 909.89
15450 kPa | 910.03
15475 kPa | 910.14
15500 kPa | 910.23
15525 kPa | 910.31
15550 kPa | 910.48
15575 kPa | 910.7
15600 kPa | 910.88
15625 kPa | 911.01
15650 kPa | 911.21
15675 kPa | 911.37
15700 kPa | 911.59
15725 kPa | 911.74
15750 kPa | 911.86
15775 kPa | 912.03
15800 kPa | 912.19
15825 kPa | 912.36
15850 kPa | 912.52
15875 kPa | 912.75
15900 kPa | 912.9
15925 kPa | 913.04
15950 kPa | 913.17
15975 kPa | 913.37
16000 kPa | 913.55
16025 kPa | 913.66
16050 kPa | 913.83
16075 kPa | 913.99
16100 kPa | 914.15
16125 kPa | 914.31
16150 kPa | 914.45
16175 kPa | 914.56
16200 kPa | 914.73
16225 kPa | 914.89
16250 kPa | 915.05
16275 kPa | 915.22
16300 kPa | 915.38
16325 kPa | 915.54
16350 kPa | 915.71
16375 kPa | 915.87
16400 kPa | 916.03
16425 kPa | 916.2
16450 kPa | 916.37
16475 kPa | 916.52
16500 kPa | 916.75
16525 kPa | 916.93
16550 kPa | 917.01
16575 kPa | 917.25
16600 kPa | 917.37
16625 kPa | 917.58
16650 kPa | 917.7
16675 kPa | 917.9
16700 kPa | 918.08
16725 kPa | 918.24
16750 kPa | 918.41
16775 kPa | 918.57
16800 kPa | 918.73
16825 kPa | 918.9
16850 kPa | 919.06
16875 kPa | 919.22
16900 kPa | 919.43
16925 kPa | 919.55
16950 kPa | 919.71
16975 kPa | 919.95
17000 kPa | 920.08
17025 kPa | 920.29
17050 kPa | 920.44
17075 kPa | 920.59
17100 kPa | 920.73
17125 kPa | 920.92
17150 kPa | 921.1
17175 kPa | 921.27
17200 kPa | 921.4
17225 kPa | 921.53
17250 kPa | 921.7
17275 kPa | 921.85
17300 kPa | 922.01
17325 kPa | 922.18
17350 kPa | 922.33
17375 kPa | 922.5
17400 kPa | 922.71
17425 kPa | 922.85
17450 kPa | 922.99
17475 kPa | 923.17
17500 kPa | 923.34
17525 kPa | 923.48
17550 kPa | 923.64
17575 kPa | 923.77
17600 kPa | 923.94
17625 kPa | 924.11
17650 kPa | 924.26
17675 kPa | 924.4
17700 kPa | 924.55
